Source: ChEMBL document CHEMBL1201862, “PubChem BioAssay data set” (2004)
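How tested: cells in 96-well plates exposed to compound for 48 hours at five concentrations. GI50 marks 50% less growth.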 Activity calls are given as the source filed them. Cut-off read from the data, not from the text of the source: active = GI50 up to about 1.1 µM and inactive = higher.

Experiments:
Assay in all cases: DTP human tumour cell line panel, 48 h
786-0 = test system: 786-0
A498 = test system: A498
A549 = test system: A549
ACHN = test system: ACHN
BT-549 = test system: BT-549
CAKI-1 = test system: CAKI-1
CCRF-CEM = test system: CCRF-CEM
COLO 205 = test system: COLO 205
DU-145 = test system: DU-145
EKVX = test system: EKVX
HCC 2998 = test system: HCC 2998
HCT-116 = test system: HCT-116
HCT-15 = test system: HCT-15
HL-60 = test system: HL-60
HOP-92 = test system: HOP-92
HT-29 = test system: HT-29
Hs-578T = test system: Hs-578T
IGROV-1 = test system: IGROV-1
K562 = test system: K562
KM12 = test system: KM12
LOX IMVI = test system: LOX IMVI
M14 = test system: M14
MCF7 = test system: MCF7
MDA-MB-231 = test system: MDA-MB-231
MDA-MB-435 = test system: MDA-MB-435
MDA-N = test system: MDA-N
MOLT-4 = test system: MOLT-4
Malme-3M = test system: Malme-3M
NCI-H23 = test system: NCI-H23
NCI-H460 = test system: NCI-H460
NCI-H522 = test system: NCI-H522
NCI/ADR-RES = test system: NCI/ADR-RES
OVCAR-3 = test system: OVCAR-3
OVCAR-4 = test system: OVCAR-4
OVCAR-5 = test system: OVCAR-5
OVCAR-8 = test system: OVCAR-8
PC-3 = test system: PC-3
RPMI-8226 = test system: RPMI-8226
RXF 393 = test system: RXF 393
SF-268 = test system: SF-268
SF-295 = test system: SF-295
SF-539 = test system: SF-539
SK-MEL-28 = test system: SK-MEL-28
SK-MEL-2 = test system: SK-MEL-2
SK-MEL-5 = test system: SK-MEL-5
SK-OV-3 = test system: SK-OV-3
SN12C = test system: SN12C
SNB-19 = test system: SNB-19
SNB-75 = test system: SNB-75
SW-620 = test system: SW-620
T47D = test system: T47D
TK-10 = test system: TK-10
U-251 = test system: U-251
UACC-257 = test system: UACC-257
UACC-62 = test system: UACC-62
UO-31 = test system: UO-31

Measured: GI50

O=C1c2cccc3cccc(c23)C(=O)N1O
40.9 µM: HCT-15
inactive: 786-0 49.9 µM | A498 > 100 µM | A549 77.1 µM | ACHN 71.8 µM | BT-549 > 100 µM | CAKI-1 49.8 µM | CCRF-CEM 18.5 µM | COLO 205 > 100 µM | DU-145 53.6 µM | EKVX > 100 µM | HCC 2998 75 µM | HCT-116 27.4 µM | HL-60 > 100 µM | HOP-92 25.7 µM | HT-29 51.8 µM | Hs-578T 53 µM | IGROV-1 20.2 µM | K562 36.7 µM | KM12 45.4 µM | LOX IMVI 53.2 µM | M14 51.9 µM | MCF7 37.5 µM | MDA-MB-231 > 100 µM | MDA-MB-435 > 100 µM | MDA-N 91.6 µM | MOLT-4 69.7 µM | Malme-3M > 100 µM | NCI-H23 74.8 µM | NCI-H460 29.2 µM | NCI-H522 37.2 µM | NCI/ADR-RES > 100 µM | OVCAR-3 57.4 µM | OVCAR-4 57.8 µM | OVCAR-5 > 100 µM | OVCAR-8 56.6 µM | PC-3 76.2 µM | RPMI-8226 45.6 µM | RXF 393 24 µM | SF-268 70.5 µM | SF-295 34.2 µM | SF-539 50.9 µM | SK-MEL-28 > 100 µM | SK-MEL-2 86.5 µM | SK-MEL-5 > 100 µM | SK-OV-3 68.2 µM | SN12C 54.1 µM | SNB-19 95.1 µM | SNB-75 27.7 µM | SW-620 14.5 µM | T47D > 100 µM | TK-10 > 100 µM | U-251 28.6 µM | UACC-257 > 100 µM | UACC-62 > 100 µM | UO-31 70.1 µM
